Source: US10167262B2, “Herbicidal substituted 3-arylpyrazoles” (FMC CORPORATION, priority 2014, dated 2019)

What was measured:
Experiment in all cases: Test A pre-/postemergence greenhouse herbicide test, visual injury rating 0-100
Assay type in all cases: in vivo
[1] = system: giant foxtail (Setaria faberii)
Description: (§1) Seeds of plant species selected from barnyardgrass (Echinochloa crus-galli), large (Lg) crabgrass (Digitaria sanguinalis), giant foxtail (Setaria faberii), morningglory (Ipomoea spp.), pigweed (Amaranthus retroflexus), velvetleaf (Abutilon theophrasti), wheat (Triticum aestivum), and corn (Zea mays) were planted into a blend of loam soil and sand and treated preemergence with a directed soil spray using test chemicals formulated in a non-phytotoxic solvent mixture which included a surfactant. At the same time these species were also treated with postemergence applications of test chemicals formulated in the same manner. Plants ranged in height from 2 to 10 cm and were in the one- to two-leaf stage for the postemergence treatment. Treated plants and untreated controls were maintained in a greenhouse for approximately 10 days, after which time all treated plants were compared to untreated controls and visually evaluated for injury. Plant response ratings, summarized in Table A, are based on a 0 to 100 scale where 0 is no effect and 100 is complete control. A dash (-) response means no test result.

[2] = system: morningglory (Ipomoea spp.)
Description: as §1

[3] = system: pigweed (Amaranthus retroflexus)
Description: as §1

[4] = system: barnyardgrass (Echinochloa crus-galli)
Description: as §1

[5] = system: wheat (Triticum aestivum)
Description: as §1

[6] = system: velvetleaf (Abutilon theophrasti)
Description: as §1

corn (Zea mays) = system: corn (Zea mays)
Description: as §1

[7] = system: large (Lg) crabgrass (Digitaria sanguinalis)
Description: as §1

CC(=O)n1cc(C(=O)c2cncc(F)c2)c(-c2cc(Cl)cc(Cl)c2)n1 [Compound 20]
Plant response rating (0 to 100 scale), Foxtail, Giant ([1]; Postemergence, 1000 g ai/ha): 0
Plant response rating (0 to 100 scale), Foxtail, Giant ([1]; Preemergence, 1000 g ai/ha): 0
Plant response rating (0 to 100 scale), Morningglory ([2]; Postemergence, 1000 g ai/ha): 0
Plant response rating (0 to 100 scale), Morningglory ([2]; Preemergence, 1000 g ai/ha): 0
Plant response rating (0 to 100 scale), Pigweed ([3]; Postemergence, 1000 g ai/ha): 90
Plant response rating (0 to 100 scale), Pigweed ([3]; Preemergence, 1000 g ai/ha): 100
Plant response rating (0 to 100 scale), Barnyardgrass ([4]; Postemergence, 1000 g ai/ha): 0
Plant response rating (0 to 100 scale), Barnyardgrass ([4]; Preemergence, 1000 g ai/ha): 0
Plant response rating (0 to 100 scale), Wheat ([5]; Postemergence, 1000 g ai/ha): 0
Plant response rating (0 to 100 scale), Wheat ([5]; Preemergence, 1000 g ai/ha): 0
Plant response rating (0 to 100 scale), Velvetleaf ([6]; Postemergence, 1000 g ai/ha): 90
Plant response rating (0 to 100 scale), Velvetleaf ([6]; Preemergence, 1000 g ai/ha): 80
Plant response rating (0 to 100 scale), Corn (corn (Zea mays); Postemergence, 1000 g ai/ha): 0
Plant response rating (0 to 100 scale), Corn (corn (Zea mays); Preemergence, 1000 g ai/ha): 0
Plant response rating (0 to 100 scale), Crabgrass, Large ([7]; Postemergence, 1000 g ai/ha): 0
Plant response rating (0 to 100 scale), Crabgrass, Large ([7]; Preemergence, 1000 g ai/ha): 0

CCn1cc(C(=O)c2cncc(F)c2)c(-c2cc(Cl)cc(Cl)c2)n1 [Compound 21]
Plant response rating (0 to 100 scale), Foxtail, Giant ([1]; Postemergence, 1000 g ai/ha): 0
Plant response rating (0 to 100 scale), Foxtail, Giant ([1]; Preemergence, 1000 g ai/ha): 0
Plant response rating (0 to 100 scale), Morningglory ([2]; Postemergence, 1000 g ai/ha): 0
Plant response rating (0 to 100 scale), Morningglory ([2]; Preemergence, 1000 g ai/ha): 0
Plant response rating (0 to 100 scale), Pigweed ([3]; Postemergence, 1000 g ai/ha): 100
Plant response rating (0 to 100 scale), Pigweed ([3]; Preemergence, 1000 g ai/ha): 80
Plant response rating (0 to 100 scale), Barnyardgrass ([4]; Postemergence, 1000 g ai/ha): 0
Plant response rating (0 to 100 scale), Barnyardgrass ([4]; Preemergence, 1000 g ai/ha): 0
Plant response rating (0 to 100 scale), Wheat ([5]; Postemergence, 1000 g ai/ha): 0
Plant response rating (0 to 100 scale), Wheat ([5]; Preemergence, 1000 g ai/ha): 0
Plant response rating (0 to 100 scale), Velvetleaf ([6]; Postemergence, 1000 g ai/ha): 90
Plant response rating (0 to 100 scale), Velvetleaf ([6]; Preemergence, 1000 g ai/ha): 80
Plant response rating (0 to 100 scale), Corn (corn (Zea mays); Postemergence, 1000 g ai/ha): 0
Plant response rating (0 to 100 scale), Corn (corn (Zea mays); Preemergence, 1000 g ai/ha): 0
Plant response rating (0 to 100 scale), Crabgrass, Large ([7]; Postemergence, 1000 g ai/ha): 10
Plant response rating (0 to 100 scale), Crabgrass, Large ([7]; Preemergence, 1000 g ai/ha): 0

CON=C(c1ccccc1)c1c[nH]nc1-c1cc(Br)cc(Br)c1 [Compound 29]
Plant response rating (0 to 100 scale), Foxtail, Giant ([1]; Postemergence, 1000 g ai/ha): 10
Plant response rating (0 to 100 scale), Foxtail, Giant ([1]; Preemergence, 1000 g ai/ha): 0
Plant response rating (0 to 100 scale), Morningglory ([2]; Postemergence, 1000 g ai/ha): 0
Plant response rating (0 to 100 scale), Morningglory ([2]; Preemergence, 1000 g ai/ha): 0
Plant response rating (0 to 100 scale), Pigweed ([3]; Postemergence, 1000 g ai/ha): 90
Plant response rating (0 to 100 scale), Pigweed ([3]; Preemergence, 1000 g ai/ha): 40
Plant response rating (0 to 100 scale), Barnyardgrass ([4]; Postemergence, 1000 g ai/ha): 0
Plant response rating (0 to 100 scale), Barnyardgrass ([4]; Preemergence, 1000 g ai/ha): 0
Plant response rating (0 to 100 scale), Wheat ([5]; Postemergence, 1000 g ai/ha): 0
Plant response rating (0 to 100 scale), Wheat ([5]; Preemergence, 1000 g ai/ha): 0
Plant response rating (0 to 100 scale), Velvetleaf ([6]; Postemergence, 1000 g ai/ha): 90
Plant response rating (0 to 100 scale), Velvetleaf ([6]; Preemergence, 1000 g ai/ha): 70
Plant response rating (0 to 100 scale), Corn (corn (Zea mays); Postemergence, 1000 g ai/ha): 0
Plant response rating (0 to 100 scale), Corn (corn (Zea mays); Preemergence, 1000 g ai/ha): 0
Plant response rating (0 to 100 scale), Crabgrass, Large ([7]; Postemergence, 1000 g ai/ha): 0
Plant response rating (0 to 100 scale), Crabgrass, Large ([7]; Preemergence, 1000 g ai/ha): 0

CON=C(c1cccs1)c1c[nH]nc1-c1cc(Cl)cc(Cl)c1 [Compound 32]
Plant response rating (0 to 100 scale), Foxtail, Giant ([1]; Postemergence, 125 g ai/ha): 0
Plant response rating (0 to 100 scale), Foxtail, Giant ([1]; Postemergence, 500 g ai/ha): 0
Foxtail, Giant plant response rating (0 = no effect, 100 = complete control) ([1]; Preemergence, 125 g ai/ha): 0
Plant response rating (0 to 100 scale), Foxtail, Giant ([1]; Preemergence, 500 g ai/ha): 0
Plant response rating (0 to 100 scale), Morningglory ([2]; Postemergence, 125 g ai/ha): 0
Plant response rating (0 to 100 scale), Morningglory ([2]; Postemergence, 500 g ai/ha): 0
Morningglory plant response rating (0 = no effect, 100 = complete control) ([2]; Preemergence, 125 g ai/ha): 0
Plant response rating (0 to 100 scale), Morningglory ([2]; Preemergence, 500 g ai/ha): 0
Plant response rating (0 to 100 scale), Pigweed ([3]; Postemergence, 125 g ai/ha): 0
Plant response rating (0 to 100 scale), Pigweed ([3]; Postemergence, 500 g ai/ha): 60
Pigweed plant response rating (0 = no effect, 100 = complete control) ([3]; Preemergence, 125 g ai/ha): 0
Plant response rating (0 to 100 scale), Barnyardgrass ([4]; Postemergence, 125 g ai/ha): 0
Plant response rating (0 to 100 scale), Barnyardgrass ([4]; Postemergence, 500 g ai/ha): 0
Barnyardgrass plant response rating (0 = no effect, 100 = complete control) ([4]; Preemergence, 125 g ai/ha): 0
Plant response rating (0 to 100 scale), Barnyardgrass ([4]; Preemergence, 500 g ai/ha): 0
Plant response rating (0 to 100 scale), Wheat ([5]; Postemergence, 125 g ai/ha): 0
Plant response rating (0 to 100 scale), Wheat ([5]; Postemergence, 500 g ai/ha): 0
Wheat plant response rating (0 = no effect, 100 = complete control) ([5]; Preemergence, 125 g ai/ha): 0
Plant response rating (0 to 100 scale), Wheat ([5]; Preemergence, 500 g ai/ha): 0
Plant response rating (0 to 100 scale), Velvetleaf ([6]; Postemergence, 125 g ai/ha): 60
Plant response rating (0 to 100 scale), Velvetleaf ([6]; Postemergence, 500 g ai/ha): 70
Velvetleaf plant response rating (0 = no effect, 100 = complete control) ([6]; Preemergence, 125 g ai/ha): 0
Plant response rating (0 to 100 scale), Velvetleaf ([6]; Preemergence, 500 g ai/ha): 0
Plant response rating (0 to 100 scale), Corn (corn (Zea mays); Postemergence, 125 g ai/ha): 0
Plant response rating (0 to 100 scale), Corn (corn (Zea mays); Postemergence, 500 g ai/ha): 0
Corn plant response rating (0 = no effect, 100 = complete control) (corn (Zea mays); Preemergence, 125 g ai/ha): 0
Plant response rating (0 to 100 scale), Corn (corn (Zea mays); Preemergence, 500 g ai/ha): 0
Plant response rating (0 to 100 scale), Crabgrass, Large ([7]; Postemergence, 125 g ai/ha): 0
Plant response rating (0 to 100 scale), Crabgrass, Large ([7]; Postemergence, 500 g ai/ha): 0
Crabgrass, Large plant response rating (0 = no effect, 100 = complete control) ([7]; Preemergence, 125 g ai/ha): 0
Plant response rating (0 to 100 scale), Crabgrass, Large ([7]; Preemergence, 500 g ai/ha): 0
